Assays:
Type in all cases: in vivo
[1] = test system: rice and other crops; assay: Comparison experiment (post-emergence, Tables 4-7), crop safety; conditions: dose of 125, 60, 30, 15 g/ha
Excerpt: (§1) The above growth control rates are fresh weight control rates.
(§2) Experiment on weeding effect in post-emergence stage: monocotyledonous and dicotyledonous weed seeds (Descurainia sophia, Capsella bursa-pastoris, Galium aparine, Stellaria media, Lithospermum arvense, Rorippa indica, Alopecurus aequalis, Beckmannia syzigachne, Sclerochloa dura, Phleum paniculatum, Bromus japonicus, Aegilops tauschii, Phalaris arundinacea, Amaranthus retroflexus, Chenopodiaceae, Commelina communis, Sonchus arvensis, convolvulus arvensis, Cirsium setosum, Solanum nigrum, Acalypha australis, Digitaria sanguinalis, Echinochloa crusgalli, Setaria viridis, Setaria glauca, Leptochloa chinensis, Monochoria vaginalis, Sagittaria trifolia, Scirpus juncoides, Cyperus rotundus, Cyperus iria, Cyperus difformis, Fimbristylis, Portulaca oleracea, Xanthium sibiricum, Pharbitis nil) and major crop seeds (wheat, corn, rice, soybean, cotton, oilseed rape, millet, sorghum, potato, sesame, ricinus) were placed in plastic pots filled with soil, then covered with 0.5-2 cm of soil, allowed to grow in a good greenhouse environment. After 2 weeks of sowing, the test plants were treated in the 2 leaf stage. The tested compounds of the present invention were respectively dissolved in acetone, then added with Tween 80 and 1.5 liter/ha of emulsifiable concentrate of methyl oleate as synergist, diluted with a certain amount of water to obtain a solution with a certain concentration, and sprayed with a spray tower onto the plants. After the application, the plants were cultured for 15 days in the greenhouse, and then the experimental results of the weeding were counted. The doses of the used compounds were 500, 250, 125, 60, 30, 15 g/ha, and the averages were obtained by repeating for three times.
(§3) If there is no clear marker, the post-seedling test conditions are the same as above, and the experimental results are shown in Tables 4-7.

[2] = test system: key weeds such as Digitaria sanguinalis, Leptochloa chinensis; assay: Comparison experiment (post-emergence, Tables 4-7), herbicidal activity on weeds not listed separately; conditions: dose of 125, 60, 30, 15 g/ha
Excerpt: as §1, §2, §3

[3] = test system: Digitaria sanguinalis; assay: Weeding effect in post-emergence stage; conditions: 250 g/ha; 2 leaf stage; 15 days after application; fresh weight control rate
Outline: (§4)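 Post-emergence spray, 2-leaf stage; doses 500–15 g/ha; acetone + Tween 80 + methyl oleate EC (1.5 L/ha) as synergist. Greenhouse 15 d. Readout: fresh weight control rate graded levels 0–5 (5 = above 85%, 0 = below 5%); triplicate means.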

[4] = test system: Abutilon theophrasti; assay: Weeding effect in post-emergence stage; conditions: 250 g/ha; 2 leaf stage; 15 days after application; fresh weight control rate
Outline: as §4

[5] = test system: Setaria viridis; assay: Weeding effect in post-emergence stage; conditions: 250 g/ha; 2 leaf stage; 15 days after application; fresh weight control rate
Outline: as §4

[6] = test system: Echinochloa crusgali; assay: Weeding effect in post-emergence stage; conditions: 250 g/ha; 2 leaf stage; 15 days after application; fresh weight control rate
Outline: as §4

[7] = test system: Amaranthus retroflexus; assay: Weeding effect in post-emergence stage; conditions: 250 g/ha; 2 leaf stage; 15 days after application; fresh weight control rate
Outline: as §4

Row | SMILES | safety to rice and other crops compared with the corresponding racemate or S configuration [1] | activity to key weeds such as Digitaria sanguinalis, Leptochloa chinensis compared with the corresponding racemate or S configuration [2] | weeding effect in post-emergence stage, activity level (growth control rate), Digitaria sanguinalis [3] | weeding effect in post-emergence stage, activity level (growth control rate), Abutilon theophrasti [4] | weeding effect in post-emergence stage, activity level (growth control rate), Setaria viridis [5] | weeding effect in post-emergence stage, activity level (growth control rate), Echinochloa crusgali [6] | weeding effect in post-emergence stage, activity level (growth control rate), Amaranthus retroflexus [7]
1 | CNCC[S@@+]([O-])c1c(C(F)(F)F)ccc(C(=O)Nc2nnc(C)o2)c1F [Compound 67] | higher safety | better activity | 5 (Level 5: growth control rate is above 85%) | 5 (Level 5: growth control rate is above 85%) | 5 (Level 5: growth control rate is above 85%) | 5 (Level 5: growth control rate is above 85%) | 5 (Level 5: growth control rate is above 85%)
2 | C=CCC[S@@+]([O-])c1c(C(F)(F)F)ccc(C(=O)Nc2nnc(C)o2)c1F [Compound 20] | higher safety | better activity | 5 (Level 5: growth control rate is above 85%) | 5 (Level 5: growth control rate is above 85%) | 5 (Level 5: growth control rate is above 85%) | 5 (Level 5: growth control rate is above 85%) | 5 (Level 5: growth control rate is above 85%)
3 | Cc1nnc(NC(=O)c2ccc(C(F)(F)F)c([S@@+]([O-])C[S+](C)[O-])c2F)o1 (some centres unmarked) [Compound 205] | higher safety | better activity | 5 (Level 5: growth control rate is above 85%) | 5 (Level 5: growth control rate is above 85%) | 5 (Level 5: growth control rate is above 85%) | 5 (Level 5: growth control rate is above 85%) | 5 (Level 5: growth control rate is above 85%)
4 | CCC[S@@+]([O-])c1c(C(F)(F)F)ccc(C(=O)N(c2nnc(C)o2)C(C)OC(=O)OCC)c1F (some centres unmarked) [Compound 261] | higher safety | better activity | 5 (Level 5: growth control rate is above 85%) | 5 (Level 5: growth control rate is above 85%) | 5 (Level 5: growth control rate is above 85%) | 5 (Level 5: growth control rate is above 85%) | 5 (Level 5: growth control rate is above 85%)
5 | Cc1nnc(NC(=O)c2ccc(C(F)(F)F)c([S@+]([O-])CCC#N)c2F)o1 [Compound 52] | higher safety | better activity | 5 (Level 5: growth control rate is above 85%) | 5 (Level 5: growth control rate is above 85%) | 5 (Level 5: growth control rate is above 85%) | 5 (Level 5: growth control rate is above 85%) | 5 (Level 5: growth control rate is above 85%)
6 | CC[S@@+]([O-])c1c(C(F)(F)F)ccc(C(=O)Nc2nnc(C)o2)c1F [Compound 2] | higher safety | better activity | 4 (Level 4: growth control rate is greater than or equal to 60% and less than 85%) | 5 (Level 5: growth control rate is above 85%) | 4 (Level 4: growth control rate is greater than or equal to 60% and less than 85%) | 5 (Level 5: growth control rate is above 85%) | 5 (Level 5: growth control rate is above 85%)
7 | CC(C)=NOCC[S@@+]([O-])c1c(C(F)(F)F)ccc(C(=O)Nc2nnc(C)o2)c1F [Compound 166] | higher safety | better activity | 5 (Level 5: growth control rate is above 85%) | 5 (Level 5: growth control rate is above 85%) | 5 (Level 5: growth control rate is above 85%) | 5 (Level 5: growth control rate is above 85%) | 5 (Level 5: growth control rate is above 85%)
8 | CCCCC[S@@+]([O-])c1c(C(F)(F)F)ccc(C(=O)Nc2nnc(C)o2)c1F [Compound 8] | higher safety | better activity | 4 (Level 4: growth control rate is greater than or equal to 60% and less than 85%) | 5 (Level 5: growth control rate is above 85%) | 4 (Level 4: growth control rate is greater than or equal to 60% and less than 85%) | 5 (Level 5: growth control rate is above 85%) | 5 (Level 5: growth control rate is above 85%)
9 | CCC[S@@+]([O-])c1c(C(F)F)ccc(C(=O)Nc2nnc(C)o2)c1Cl [Compound 617] | higher safety | better activity | 5 (Level 5: growth control rate is above 85%) | 5 (Level 5: growth control rate is above 85%) | 5 (Level 5: growth control rate is above 85%) | 5 (Level 5: growth control rate is above 85%) | 5 (Level 5: growth control rate is above 85%)
10 | Cc1nnc(NC(=O)c2ccc(C(F)(F)F)c([S@+]([O-])CCC3CC3)c2F)o1 [Compound 17] | higher safety | better activity | 5 (Level 5: growth control rate is above 85%) | 5 (Level 5: growth control rate is above 85%) | 5 (Level 5: growth control rate is above 85%) | 5 (Level 5: growth control rate is above 85%) | 5 (Level 5: growth control rate is above 85%)
11 | COC[S+]([O-])c1c(C(F)(F)F)ccc(C(=O)Nc2nnc(C)o2)c1F (centres unmarked) [Compound 69] | higher safety | better activity | 5 (Level 5: growth control rate is above 85%) | 5 (Level 5: growth control rate is above 85%) | 5 (Level 5: growth control rate is above 85%) | 5 (Level 5: growth control rate is above 85%) | 5 (Level 5: growth control rate is above 85%)

From patent US12643871B2, “Aryl formamide compound containing chiral sulfur oxide or salt thereof, preparation method, herbicidal composition and use thereof” (Qingdao Kingagroot Chemical Compound Co., Ltd., priority 2019, dated 2026)
